Assays:
human NOX1 = molecular target: T1, human NOX1 (Homo sapiens, UniProt Q9Y5S8); assay: Human NOX1 isolated membranes, Amplex Red/horseradish peroxidase coupled assay; format: biochemical; details: membrane-embedded, 40 μM NADPH; for IC50: read-out: IC50 on human NOXs, NOX1 (AMPLEX RED)
T1 construct: expressed in transfected cells; host or cells: HEK293 F cells, transient transfection (pEG BacMam vector); isolated membranes; Cytosolic proteins made in E. coli
T1 sequence (Q9Y5S8 1-564): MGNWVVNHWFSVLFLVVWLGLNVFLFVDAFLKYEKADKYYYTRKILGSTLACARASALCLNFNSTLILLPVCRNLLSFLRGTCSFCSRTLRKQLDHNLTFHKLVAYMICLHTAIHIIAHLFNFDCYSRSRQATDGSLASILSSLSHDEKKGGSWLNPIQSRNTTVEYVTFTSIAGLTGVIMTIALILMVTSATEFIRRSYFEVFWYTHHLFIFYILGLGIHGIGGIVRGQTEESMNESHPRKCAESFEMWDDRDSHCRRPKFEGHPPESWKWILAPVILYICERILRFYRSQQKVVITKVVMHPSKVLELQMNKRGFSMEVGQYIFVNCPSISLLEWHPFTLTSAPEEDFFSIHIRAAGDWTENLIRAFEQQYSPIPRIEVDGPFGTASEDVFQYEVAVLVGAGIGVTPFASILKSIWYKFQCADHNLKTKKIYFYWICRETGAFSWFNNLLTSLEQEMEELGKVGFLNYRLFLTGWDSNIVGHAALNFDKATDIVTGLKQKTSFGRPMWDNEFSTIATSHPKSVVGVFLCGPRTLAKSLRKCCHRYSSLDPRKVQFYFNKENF
T1 sequence (P13498 1-195 partner): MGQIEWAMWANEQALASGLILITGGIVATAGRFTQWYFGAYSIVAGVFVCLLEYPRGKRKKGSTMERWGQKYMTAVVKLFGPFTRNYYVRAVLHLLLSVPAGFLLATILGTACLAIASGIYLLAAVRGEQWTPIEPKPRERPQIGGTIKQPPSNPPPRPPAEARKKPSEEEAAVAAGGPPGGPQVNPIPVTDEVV
Description: (§1) Activity assays for IC50 determinations were performed as previously described[40],[42] with modifications for covalent inhibitors. […] The estimated final protein concentrations based on the heme’s absorbance (ε414 nm = 131,000 M^–1 cm^–1) were 10–20 nM. Compounds were incubated for 1 h at 25 °C at varying concentrations, and reactions were initiated with 40 μM NADPH. Fluorescence was measured using a ClarioStar plate reader (excitation 572 nm/emission 583 nm).

NOX2 = NOX2 (Homo sapiens, UniProt P04839); assay: In cellulo NOX2 activity in NOX2-overexpressing PLB-985 cells, cytochrome c reduction; format: cell-based; set-up: NOX2 was expressed as native protein in X-CGD PLB-985 cells transduced with the RD114 pseudotyped MFGS-NOX2 vector; expressed in transfected cells; host or cells: X-CGD PLB-985 cells transduced with MFGS-NOX2 vector; details: for IC50: intact PMA-stimulated cells, cytochrome c 200 μM
NOX2, sequence (P04839 2-570 limits assumed, one chain of several): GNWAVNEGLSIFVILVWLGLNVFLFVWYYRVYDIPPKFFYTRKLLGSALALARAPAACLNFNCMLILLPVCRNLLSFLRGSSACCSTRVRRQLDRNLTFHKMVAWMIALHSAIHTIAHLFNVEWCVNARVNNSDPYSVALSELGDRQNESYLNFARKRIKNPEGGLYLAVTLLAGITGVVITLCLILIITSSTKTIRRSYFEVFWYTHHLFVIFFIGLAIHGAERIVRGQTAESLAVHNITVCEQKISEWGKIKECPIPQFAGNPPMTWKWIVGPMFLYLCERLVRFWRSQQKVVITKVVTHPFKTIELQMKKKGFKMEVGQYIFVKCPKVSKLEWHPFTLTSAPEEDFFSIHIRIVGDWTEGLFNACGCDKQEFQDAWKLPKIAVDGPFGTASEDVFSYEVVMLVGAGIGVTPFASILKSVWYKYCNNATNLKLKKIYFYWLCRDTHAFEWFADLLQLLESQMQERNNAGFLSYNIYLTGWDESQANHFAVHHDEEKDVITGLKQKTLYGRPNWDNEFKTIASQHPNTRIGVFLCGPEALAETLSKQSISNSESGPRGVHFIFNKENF
NOX2, sequence (P19878 whole entry partner, one chain of several): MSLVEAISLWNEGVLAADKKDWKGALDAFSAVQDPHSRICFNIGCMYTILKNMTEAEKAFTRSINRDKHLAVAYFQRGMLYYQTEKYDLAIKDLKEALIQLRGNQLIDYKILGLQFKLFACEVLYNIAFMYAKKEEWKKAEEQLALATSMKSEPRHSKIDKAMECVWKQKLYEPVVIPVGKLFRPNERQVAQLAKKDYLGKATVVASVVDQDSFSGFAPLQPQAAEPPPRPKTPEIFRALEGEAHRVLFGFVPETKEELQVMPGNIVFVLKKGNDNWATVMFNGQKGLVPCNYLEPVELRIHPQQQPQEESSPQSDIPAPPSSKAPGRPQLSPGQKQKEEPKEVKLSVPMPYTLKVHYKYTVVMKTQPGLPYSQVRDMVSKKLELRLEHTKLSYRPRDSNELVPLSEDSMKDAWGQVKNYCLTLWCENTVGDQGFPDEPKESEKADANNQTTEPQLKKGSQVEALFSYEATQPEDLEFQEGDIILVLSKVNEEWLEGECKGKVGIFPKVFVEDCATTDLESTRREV
NOX2, sequence (P14598 whole entry partner, one chain of several): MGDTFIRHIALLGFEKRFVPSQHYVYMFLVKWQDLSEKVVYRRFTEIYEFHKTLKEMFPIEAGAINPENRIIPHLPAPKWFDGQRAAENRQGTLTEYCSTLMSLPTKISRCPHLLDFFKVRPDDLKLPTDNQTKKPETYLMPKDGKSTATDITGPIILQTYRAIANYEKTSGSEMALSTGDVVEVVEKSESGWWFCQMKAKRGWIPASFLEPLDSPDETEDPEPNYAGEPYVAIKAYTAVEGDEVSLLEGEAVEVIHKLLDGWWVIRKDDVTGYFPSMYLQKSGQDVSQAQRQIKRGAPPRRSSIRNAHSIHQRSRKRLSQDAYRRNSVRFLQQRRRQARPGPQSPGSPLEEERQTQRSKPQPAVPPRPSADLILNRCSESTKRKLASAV
Description: Measurement of human NOX2 activity in cells was performed by a cytochrome c (200 μM) reduction assay. Superoxide production of intact PLB-985 cells (3 × 10^5 cells) was measured after PMA stimulation (5 μM) as reported.[40],[42] The compounds (0.04–40 μM) were added to the prestimulated cells and incubated for 1 h at 37 °C and 5% CO2, 120 rpm (New Brunswick S41i incubator shaker, Eppendorf). The absorbance at 550 nm was followed at 37 °C over a time course of 20 min in a ClarioStar plate reader (BMG Labtech).

human NOX5 = molecular target: T2, human NOX5 (Homo sapiens, UniProt Q96PH1); assay: Human NOX5 isolated membranes, Amplex Red/horseradish peroxidase coupled assay; format: biochemical; details: membrane-embedded, 40 μM NADPH; for IC50: read-out: IC50 on human NOXs, NOX5 (AMPLEX RED)
T2 construct: expressed in transfected cells; host or cells: HEK293 F cells, transient transfection (pEG BacMam vector); isolated membranes
T2 sequence (Q96PH1 1-719 isoform Q96PH1-4): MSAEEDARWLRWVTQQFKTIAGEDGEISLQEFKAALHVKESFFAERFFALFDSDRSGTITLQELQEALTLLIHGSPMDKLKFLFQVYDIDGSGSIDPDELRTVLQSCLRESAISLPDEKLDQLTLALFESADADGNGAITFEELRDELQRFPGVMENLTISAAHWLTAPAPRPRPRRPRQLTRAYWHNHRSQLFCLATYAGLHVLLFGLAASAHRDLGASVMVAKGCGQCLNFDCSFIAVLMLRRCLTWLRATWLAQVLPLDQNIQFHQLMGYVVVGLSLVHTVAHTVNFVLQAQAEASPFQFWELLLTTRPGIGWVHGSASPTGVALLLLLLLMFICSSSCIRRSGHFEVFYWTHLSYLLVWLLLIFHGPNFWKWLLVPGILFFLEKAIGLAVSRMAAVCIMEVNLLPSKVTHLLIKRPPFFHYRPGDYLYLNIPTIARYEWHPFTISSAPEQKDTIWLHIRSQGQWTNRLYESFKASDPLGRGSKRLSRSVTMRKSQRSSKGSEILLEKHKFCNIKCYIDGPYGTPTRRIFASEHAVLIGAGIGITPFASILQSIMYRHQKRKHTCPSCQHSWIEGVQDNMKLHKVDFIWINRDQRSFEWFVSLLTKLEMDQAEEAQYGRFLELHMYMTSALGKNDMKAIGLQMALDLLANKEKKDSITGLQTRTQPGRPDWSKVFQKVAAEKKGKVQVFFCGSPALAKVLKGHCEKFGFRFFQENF
Description: as §1

Purified human NOX2 = molecular target: T3, Purified human NOX2 (Homo sapiens, UniProt P04839); assay: Purified human NOX2-p22phox, NADPH depletion assay; format: biochemical; details: for IC50: 200 nM NOX2, 240 μM NADPH, activated
T3 construct: NOX2 was expressed as native protein in X-CGD PLB-985 cells transduced with the RD114 pseudotyped MFGS-NOX2 vector; made in house; host or cells: X-CGD PLB-985 cells transduced with MFGS-NOX2; Cytosolic proteins made in E. coli
Description: The NADPH depletion assay on human NOX2 for IC50 determinations was performed as described[40],[42] with variations for covalent inhibition. Briefly, the catalytic activity was measured by monitoring the absorbance at 340 nm with a Cary 100 UV–vis spectrophotometer (Varian). A 200 nM purified NOX2-p22^phox heterodimer was added to a 200 μL reaction mix containing a 65 mM sodium phosphate buffer (pH 7.0), 50 μM FAD, 130 μM LiDS, and 1 μM recombinant p67^phox, p47^phox, and Rac1 Q61L. Inhibitors were added at varying concentrations (7 nM–200 μM) and incubated for 1 h at 25 °C. The reaction was started by the addition of 240 μM NADPH.

SMILES	IC50 on human NOXs, NOX1 (AMPLEX RED) (human NOX1)	IC50 (human NOX1)	IC50 (NOX2)	IC50 on human NOXs, NOX5 (AMPLEX RED) (human NOX5)	IC50 (human NOX5)	IC50 (Purified human NOX2)	potency against NOX2 in cellulo relative to VAS2870 (more potent) (NOX2; PLB-985 cells)	potency on purified NOX2 relative to VAS2870 (more potent) (Purified human NOX2; purified NOX2)
C#CCNC(=O)c1ccc(Cn2nnc3c(Sc4nc5ccccc5o4)ncnc32)cc1 [Compound 8b, (4-((7-Benzo[d]oxazol-2-yl-thio)-3H-[1,2,3]triazole[4,5-d]pyrimidin-3-yl)methyl)-N-(prop-2-in-1-yl)benzamide]	inactive	> 100 µM	17.6 ± 3.4 µM	inactive	> 100 µM	20.1 ± 0.5 µM	–	–
CCCNC(=O)c1ccc(Cn2nnc3c(Sc4nc5ccccc5o4)ncnc32)cc1 [Compound 8a, (4-((7-Benzo[d]oxazol-2-yl-thio)-3H-[1,2,3]triazole[4,5-d]pyrimidin-3-yl)methyl)-N-(propyl)benzamide]	–	32.9 ± 2.9 µM	2.81 ± 0.88 µM	–	6.5 ± 0.6 µM	3.3 ± 0.06 µM	–	–
C#CCN(C)Cc1ccc(Cn2nnc3c(Sc4nc5ccccc5o4)ncnc32)cc1 [Compound 9a, N-(4-((7-(Benzo[d]oxazol-2-ylthio)-3H-[1,2,3]triazolo[4,5-d]pyrimidin-3-yl)methyl)benzyl)-N-methylprop-2-yn-1-amine]	–	22 ± 6.7 µM	0.135 ± 0.02 µM	–	5.2 ± 0.1 µM	0.155 ± 0.03 µM	2 fold	over 20 fold
